Marks after values point to notes of the source that are not given here.
Legend:
breast cancer cells = conditions: cited from earlier work
[1] = tested on: proliferating cell nuclear antigen (PCNA); assay: Immunohistochemical detection of PCNA in tumor sections (cell proliferation); format: in vivo, Sprague-Dawley rats
Method: (§1) Serial sections of tumor tissue were used processed for immunohistochemical analysis. Cell proliferation was studied by immunohistochemical detection of proliferating cell nuclear antigen (PCNA) as a proliferation marker. The analysis of apoptotic cells in tumor sections were performed by using TdT-FragEL™ DNA fragmentation detection assay kit (EMD Biosciences, Inc., San Diego, Calif.). The protein expression of Bax (apoptosis inducer),Bcl-2 (apoptosis repressor), ER-a, ER-β, cyclin D1 and β-catenin were determined. The immunohistochemical slides were visualized under a light microscope (BX43, Olympus, Center Valley, Pa.) and at least 1,000 cells/animal were analyzed. Results were expressed as percentage of immunopositive cells.

[2] = tested on: apoptotic cells in tumor sections; assay: TdT-FragEL DNA fragmentation detection assay in tumor sections (apoptosis); format: in vivo, Sprague-Dawley rats
Method: as §1

Bax [3] = assay: Immunohistochemistry of Bax in mammary tumors; format: in vivo, Sprague-Dawley rats
Method: as §1

Bcl-2 [4] = assay: Immunohistochemistry of Bcl-2 in mammary tumors; format: in vivo, Sprague-Dawley rats
Method: as §1

Bax [5] = assay: Western blot of Bax in tumor tissue; format: in vivo, Sprague-Dawley rats; conditions: all doses (0.8, 1.2, 1.6 mg/kg) + DMBA
Method: (§2) Total proteins were extracted from tumor tissues with lysis buffer (containing 20 mM HEPES, 350 mM NaCl, […], 1 mM MgCh, 20% glycerol, and 1% NP-40), boiled and separated by 4-20% gradient sodium dodecyl sulfate-polyacrylamide gel electrophoresis. The proteins were transferred to polyvinylidene fluoride membranes (Santa Cruz Biotechnology Inc., Santa Cruz, Calif.), and reacted with primary mouse monoclonal antibodies to Bax, Bcl-2, Bel-XL and β-Actin (dilution 1:200) and subsequently with anti-mouse secondary antibodies (dilution 1:1,000) conjugated to horseradish peroxidase. The immunoreactions were detected by an enhanced chemiluminescence detection kit (Them10 Scientific, Rockford, Ill.) and relative intensities of bands on blots were quantitated by autoluminography using a Kodak digital imaging system. Normalization of Western blot was ensured by β-Actin.

Bcl-2 [6] = assay: Western blot of Bcl-2 in tumor tissue; format: in vivo, Sprague-Dawley rats
Method: as §2

Bax [7] = assay: RT-PCR of tumor samples, BAX; format: in vivo, Sprague-Dawley rats; conditions: tumors of AMR-Me + DMBA rats
Method: (§3) Total RNA from 20 mg of tumor sample was extracted using Quick RNA® mini Prep kit following the manufacturer's instructions. The expression levels of apoptotic and anti-apoptotic genes were monitored by reverse transcription-polymerase chain reaction (RT-PCR) using the cDNA verso kit with a temperature scale of 42° C. for 30 min for reverse transcription, and 32 cycles of 94° C. for 30 s, 56° C. for 30 s, and 72° C. for 30 s. The RT-PCR was carried out using the primers: […]
(§4) The PCR products were analyzed on 1% agarose gel and visualized by ethidium bromide staining.

BAD = assay: RT-PCR of tumor samples, BAD; format: in vivo, Sprague-Dawley rats; conditions: tumors of AMR-Me + DMBA rats
Method: as §3, §4

CASP3 = assay: RT-PCR of tumor samples, CASP3; format: in vivo, Sprague-Dawley rats; conditions: tumors of AMR-Me + DMBA rats
Method: as §3, §4

CASP7 = assay: RT-PCR of tumor samples, CASP7; format: in vivo, Sprague-Dawley rats; conditions: tumors of AMR-Me + DMBA rats
Method: as §3, §4

PARP = assay: RT-PCR of tumor samples, PARP; format: in vivo, Sprague-Dawley rats; conditions: tumors of AMR-Me + DMBA rats
Method: as §3, §4

BCL2 = assay: RT-PCR of tumor samples, BCL2; format: in vivo, Sprague-Dawley rats; conditions: tumors of AMR-Me + DMBA rats
Method: as §3, §4

ER-α = assay: Immunohistochemistry of ER-α in mammary tumors; format: in vivo, Sprague-Dawley rats; conditions: low (0.8 mg/kg) or medium (1.2 mg/kg) dose + DMBA
Method: as §1

cyclin D1 = assay: Immunohistochemistry of cyclin D1 in mammary tumors; format: in vivo, Sprague-Dawley rats; conditions: medium (1.2 mg/kg) or high (1.6 mg/kg) dose + DMBA, vs DMBA control
Method: as §1

β-catenin = assay: Immunohistochemistry of β-catenin in mammary tumors; format: in vivo, Sprague-Dawley rats; conditions: 0.8 mg/kg or 1.2 mg/kg + DMBA
Method: as §1

[8] = parameters: species or system Sprague-Dawley rats; conditions: rat, in vivo, 1.6 mg/kg
Method: The possible toxicity of high dose (1.6 mg/kg) of AMR-Me was studied by investigating hepatic and renal histopathological characteristics using H&E staining.

[9] = General observations: body weight, food and water intake; format: in vivo, Sprague-Dawley rats
Method: The DMBA was dissolved in corn oil.

[10] = mice; cited from earlier work
[11] = tested on: breast cancer MCF-7 cells; conditions: in vitro; cited from earlier work
[12] = tested on: DMBA-induced mammary tumorigenesis; assay: Chemoprevention of DMBA-induced mammary tumorigenesis; conditions: for No. of rats with tumors/total rats / Total tumor burden / Tumor Incidence / Average tumor weight: + DMBA; for Average tumor weight: mean±SEM
Text: Following an acclimatization period of one week, rats (−43 days of age) were randomly divided into six groups of 7-11 animals in each. […] Two groups (groups A and B) were maintained on the basal diet without any further treatment, whereas the remaining four groups (groups C, D, E and F) were fed with AMR-Me through oral gavage three times a week (Monday-Wednesday-Friday). AMR-Me was mixed in polyethylene glycol (Sigma-Aldrich, St. Louis, Mo.) and administered by gently securing the animal by holding the skin back of its head and delivering the drug slowly via an animal feeding needle (Popper and Sons, Inc., New Hyde Park, N.Y.) attached to a I-ml syringe (Becton Dickinson, Franklin Lakes, N.J.). This technique ensured the accurate oral dosing of the test material. Three doses of AMR-Me were used: 0.8 mg/kg (for group C), 1.2 mg/kg (for group D) and 1.6 mg/kg (for groups E and F). These three doses (low, medium and high) represent 40, 60 and 80% of calculated maximum tolerated dose (MTD) in rats, respectively. The rat MTD was calculated based on the MTD in mice (3 mg/kg/day).
Following two week of aforementioned treatment regimen, at −57 days of age, mammary carcinogenesis was initiated in all animals belonging to groups B, C, D and E by a single administration of the mammary carcinogen, DMBA at 50 mg/kg body weight by gavage. The DMBA was dissolved in corn oil. This dose of DMBA was chosen so that substantial tumor incidence could be produced but not so high as to overwhelm the chemopreventive action of AMR-Me. Oral treatment of rats with AMR-Me in groups C, D, E and F were continued for 16 weeks following the DMBA administration (i.e., a total period of 18 weeks). Food and water intake as well as behavioral patterns were monitored daily and body weights of animals were recorded every alternate week.
Animals were palpated along the milk line twice a week starting 4 weeks following DMBA treatment to detect the presence of mammary tumors. All animals were sacrificed at 16 weeks post-DMBA treatment (i.e., 18 weeks following the start of the experiment).
Following an overnight fast, animals from each group were anesthetized between 09:00 and 11:00 h by intramuscular injection of 40-87 mg/kg ketamine and 5-13 mg/kg xylazine. The skin was dissected out to expose mammary tumors. The tumors (approximated spheres) were separated from mammary gland parenchyma, carefully excised, rinsed with phosphate-buffered saline (pH 7.4) to flush out any blood, blotted dry on a paper towel, weighed, and photographed. Each tumor was measured in two perpendicular directions with a vernier caliper to the nearest mm to obtain an average diameter. The representative tumor tissue as well liver and kidney were harvested and either immediately flash frozen in liquid nitrogen for molecular work or fixed in 4% paraformaldehyde. Later, serial tumor sections (−15-μm thick) were prepared using a microtome. These sections were used for histopathological assessment by hematoxylin and eosin (H&E) staining.

[13] = medium (1.2 mg/kg) or high (1.6 mg/kg) dose + DMBA
[14] = group C: 0.8 mg/kg oral three times a week, 18 weeks
[15] = group D: 1.2 mg/kg oral three times a week, 18 weeks
[16] = group E: 1.6 mg/kg oral three times a week, 18 weeks

For CC1(C)CC[C@]2(C(=O)O)CC[C@]3(C)C(=CC[C@@H]4[C@@]5(CO)CCC(=O)C(C)(C)[C@@H]5CC[C@]43C)[C@@H]2C1 [AMR, 25-Hydroxy-3-oxoolean-12-en-28-oic Acid], the anti-neoplastic activity (breast cancer cells; plant-derived compound) is given as “relatively weak”.
In the case of COC(=O)[C@]12CCC(C)(C)C[C@H]1C1=CC[C@@H]3[C@@]4(CO)CCC(=O)C(C)(C)[C@@H]4CC[C@@]3(C)[C@]1(C)CC2 [AMR-Me, 25-hydroxy-3-oxoolean-12-en-28-oic Acid Methyl Ester], the “proliferation of tumor cells (PCNA-positive cells)” value ([1]; low dose 0.8 mg/kg + DMBA) was “marginal reduction in the proliferation of tumor cells”, the “PCNA labeling index (LI)” value ([1]; medium (1.2 mg/kg) or high (1.6 mg/kg) dose + DMBA, vs DMBA control) was “statistically significant (P<0.001) decrease” and the “apoptotic index (AI)” value ([2]; low dose 0.8 mg/kg + DMBA, vs DMBA control) was “no noticeable difference”. The “apoptotic index (AI)” value ([2]; medium (1.2 mg/kg) or high (1.6 mg/kg) dose + DMBA, vs DMBA) was “significant increase (P<0.001)”, the “frequency of Bax-immunopositive cells” value (Bax [3]; low dose 0.8 mg/kg + DMBA) was “extremely low” and the Bax/Bcl-2 ratio (Bax [3]; [13]) was “elevated the Bax/Bcl-2 ratio in a dose-responsive manner”. For the same molecule, the Bax-positive cells (Bax [3]; medium (1.2 mg/kg) or high (1.6 mg/kg) dose + DMBA, vs DMBA alone) was “significantly (P<0.001) increased”, the “expression of cytoplasmic Bcl-2” value (Bcl-2 [4]; low dose 0.8 mg/kg + DMBA) was “not altered” and the Bcl-2-positive cells (Bcl-2 [4]; [13]) was “significant (P<0.005 or 0.001) reduction”. For the same molecule, the “Bax expression (Western blot)” value (Bax [5]) was “elevated the Bax expression”, the “Bcl-2 expression (Western blot)” value (Bcl-2 [6]; high dose 1.6 mg/kg + DMBA) was “complete abrogation” and the “Bcl-2 expression (Western blot)” value (Bcl-2 [6]; low or medium dose + DMBA) was “did not modify Bel-2 expression”. For the same molecule, the “BAX mRNA level (RT-PCR)” value (Bax [7]) was “up-regulation”, the “BAD mRNA level (RT-PCR)” value (BAD) was “up-regulation” and the “CASP3 mRNA level (RT-PCR)” value (CASP3) was “up-regulation”. For the same molecule, the “CASP7 mRNA level (RT-PCR)” value (CASP7) was “up-regulation”, the “PARP mRNA level (RT-PCR)” value (PARP) was “up-regulation” and the “BCL2 mRNA level (RT-PCR)” value (BCL2) was “down-regulation”. For the same molecule, the “intra-tumor expression of ER-α” value (ER-α) was “reduced”, the “ratio of ER-α/ER-β” value (ER-α) was “concomitant drop” and the “percentage of cyclin D1-positive cells” value (cyclin D1) was “significant (P<0.05 or 0.001) decrease”. For the same molecule, the “cytosolic β-catenin expression” value (β-catenin) was “significant (P<0.001) decrease”, the “nuclear β-catenin expression” value (β-catenin) was “significant (P<0.001) decrease” and the “hepatotoxicity (hepatic histopathology)” value [8] was “no hepatotoxicity was observed”. The “nephrotoxicity (renal histopathology)” value [8] was “did not exhibit any nephrotoxicity”, the “body weights among rat groups” value ([9]; 0.8, 1.2 or 1.6 mg/kg, any time point) was “No significant difference” and the “food and water intakes” value ([9]; normal animals, 1.6 mg/kg body weight, 18 weeks) was “unaltered”. The “inhibition of proliferation of several breast cancer cells, potency” value (breast cancer cells; relative to the parent compound) was “greater potency than the parent compound AMR”, the “maximum tolerated dose (MTD)” value [10] was 3 mg/kg/day and the “potency against MCF-7 cells, concentrations” value [11] was “down to the nanomolar range”. For the same molecule, the “No. of rats with tumors/total rats” value [12, 14] was 5/8, the Total tumor burden [12, 14] was 57.5 g and the “Tumor Incidence” value [12, 14] was 62%. The Average tumor weight [12, 14] was 11.5 ± 4.9 ^ g, the “No. of rats with tumors/total rats” value [12, 15] was 2/7 and the Total tumor burden [12, 15] was 9.6 g. For the same molecule, the “Tumor Incidence” value [12, 15] was 28^a %, the Average tumor weight [12, 15] was 3.2 ± 1.5^b g and the “No. of rats with tumors/total rats” value [12, 16] was 2/7. The Total tumor burden [12, 16] was 0.8 g, the “Tumor Incidence” value [12, 16] was 28^a % and the Average tumor weight [12, 16] was 0.38 ± 0.03^b g. For the same molecule, the “visible mammary tumors in AMR-Me control” value ([12]; group F: 1.6 mg/kg without DMBA, 18 weeks) was “no visible mammary tumors”, the “improvement of cellular architecture in tumor tissue (H&E)” value ([12]; high dose 1.6 mg/kg + DMBA) was “substantial improvement of cellular architecture” and the size of tumors ([12]; high dose 1.6 mg/kg + DMBA) was “striking reduction in size”. The size of tumors ([12]; low dose 0.8 mg/kg + DMBA) was “reduced the size of tumors”, the “tumor histopathological features (H&E)” value ([12]; low dose 0.8 mg/kg + DMBA) was “did not modify tumor histopathological features” and the “improvement of cellular architecture in tumor tissue (H&E)” value ([12]; medium dose 1.2 mg/kg + DMBA) was “moderate”. The size of tumors ([12]; medium dose 1.2 mg/kg + DMBA) was “further decrease in the size of tumor”.
